Legend:
CYP 1A2 = molecular target: T1, CYP 1A2 (Homo sapiens, UniProt P05177); assay: CYP450 inhibition assay, pooled human liver microsomes; assay type: in vitro ADME; settings: probe phenacetin
T1 construct: tissue Sekisui Xeno Tech, LLC; host or cells: pooled human liver microsomes
T1 sequence (P05177 1-516): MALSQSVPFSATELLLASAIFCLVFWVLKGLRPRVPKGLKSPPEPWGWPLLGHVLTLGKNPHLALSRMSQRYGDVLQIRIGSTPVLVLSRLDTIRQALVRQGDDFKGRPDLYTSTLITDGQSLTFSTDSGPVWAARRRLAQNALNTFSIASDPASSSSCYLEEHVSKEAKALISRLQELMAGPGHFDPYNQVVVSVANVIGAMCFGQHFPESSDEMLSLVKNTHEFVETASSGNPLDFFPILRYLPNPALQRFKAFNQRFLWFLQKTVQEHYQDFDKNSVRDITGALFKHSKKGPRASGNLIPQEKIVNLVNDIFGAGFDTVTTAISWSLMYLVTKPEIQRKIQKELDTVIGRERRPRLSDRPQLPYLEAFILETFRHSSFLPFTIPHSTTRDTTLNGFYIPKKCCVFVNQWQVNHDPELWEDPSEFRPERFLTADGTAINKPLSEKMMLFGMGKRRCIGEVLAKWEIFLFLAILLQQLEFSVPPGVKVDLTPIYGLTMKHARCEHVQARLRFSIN
Description: (§1) In the CYP inhibition assay, human liver microsomes were incubated with the Cu(II) complex or reference standard. The inhibitory effects of these compounds were investigated against the major CYP isoforms namely 1A2, 2C9, 2C19, 2D6, 2B6, 2C8 and 3A4 with their respective isoform probe substrates in one reaction mixture (pooled probe substrate format using LC-MS/MS).
(§2) Pooled human liver microsomes (Sekisui Xeno Tech, LLC., Kansas City, KS, USA) were incubated with different concentrations of Cu(II) complex or reference standards in buffer containing 0.1% DMSO for 10 min at 37°C and the residual enzyme activity was measured using pooled probe substrates method by pooled LC-MS/MS. Briefly, incubation mixtures were prepared in a total volume of 200 μL with final component concentrations as follows: 0.1 M potassium phosphate buffer (pH 7.4), 1.5 mM NADPH, and 0.25 mg/ml HLM. […] After 20 min of incubation, the reactions were terminated by addition of 200 μL ice-cold acetonitrile (Rankem, Avantor Performance Materials India Limited, Andhra Pradesh, India) containing telmisartan and carbamazepine as internal standards (all probe substrates and standards were from Sigma Aldrich). Each reaction mixture was centrifuged at 3,500 rpm for 5 min and the supernatant was subjected to LC-MS/MS analysis. The percent inhibition was calculated using the following equation: %Inhibition=100‑[(activityintestwells/activityinbasalcontrolwells)×100]

CYP 2D6 = molecular target: T2, CYP 2D6 (Homo sapiens, UniProt P10635); assay: as above; assay type: in vitro ADME; settings: probe dextromethorphan
T2 construct: tissue Sekisui Xeno Tech, LLC; host or cells: pooled human liver microsomes
Description: as §1, §2

CYP 3A4 = molecular target: T3, CYP 3A4 (Homo sapiens, UniProt P08684); assay: as above; assay type: in vitro ADME; settings: probe midazolam
T3 construct: tissue Sekisui Xeno Tech, LLC; host or cells: pooled human liver microsomes
Description: as §1, §2

[1] = Hematotoxicity evaluation (blood, spleen, bone marrow) in xenograft bearing mice; assay type: in vivo, NOD scid gamma female mice; settings: for Band neutrophil / Basophils / Eosinophils / Hemoglobin / Lymphocytes / MCHC / MCV / Monocytes / PVC / Plasma protein / RBC / Segmented neutrophil / Thrombocytes / WBC: C666-1-GFP-Luc2 xenograft mice, mean ± SEM
Description: Values of hematological parameters of mice bearing C666-1-GFP-Luc2, an Epstein-barr virus (EBV) positive NPC cell line xenografts which were treated with 4 and 5 mg/kg of the Cu(II) complex were compared with those from control groups (Table 3). […] This indicated absence of anemia.
We further investigated the effects of Cu(II) complex on spleen and bone marrow (from femur) responses.
Blood samples were collected into BD Microtainer Tubes containing dipotassium EDTA (Becton, Dickinson and Company, New Jersey, USA) and submitted to the Veterinary Laboratory Services Unit, Faculty of Veterinary Medicine, Universiti Putra Malaysia, Serdang, Malaysia, for full blood count (FBC) analysis.
Major organs, bones and excised tumors were preserved in 10% neutral buffered formaldehyde solution (Leica Biosystems, Germany) for 24 to 48 h and subsequently processed into formalin-fixed paraffin-embedded tissue blocks following standard tissue processing protocol using Leica ASP300 S (Leica Biosystems, Nussloch, Germany). Fixed bones (skull, femur and tibia) were decalcified with Surgipath Decalcifier I (Leica Biosystems, Germany) for 4 to 6 h depending on size before tissue processing. After paraffin embedding, tissue blocks were sectioned ([…]) using rotary microtome Microm HM340E (Thermo Scientific, Walldorf, Germany) and stained with hematoxylin and eosin (H&E) dyes using Leica Autostainer XL (Leica Biosystems, Nussloch, Germany) before histopathological examination.
All H&E-stained tissue section slides were examined under Nikon Eclipse Ni microscope (Nikon Instruments Inc., New York, USA) and microscopic images were taken using 20x and 40x objectives. For H&E tumor section slides, the percentage of tumor necrosis was determined qualitatively using microscope by the histopathologist in order to estimate the percentage of necrotic area induced by the Cu(II) complex in the tumors. For determination of femoral bone marrow suppression, low power (10x magnification) objective was used to scan the slides while 100x magnification to assess the degree of cellularity and amount of fat present.

T2 sequence (P10635 whole entry): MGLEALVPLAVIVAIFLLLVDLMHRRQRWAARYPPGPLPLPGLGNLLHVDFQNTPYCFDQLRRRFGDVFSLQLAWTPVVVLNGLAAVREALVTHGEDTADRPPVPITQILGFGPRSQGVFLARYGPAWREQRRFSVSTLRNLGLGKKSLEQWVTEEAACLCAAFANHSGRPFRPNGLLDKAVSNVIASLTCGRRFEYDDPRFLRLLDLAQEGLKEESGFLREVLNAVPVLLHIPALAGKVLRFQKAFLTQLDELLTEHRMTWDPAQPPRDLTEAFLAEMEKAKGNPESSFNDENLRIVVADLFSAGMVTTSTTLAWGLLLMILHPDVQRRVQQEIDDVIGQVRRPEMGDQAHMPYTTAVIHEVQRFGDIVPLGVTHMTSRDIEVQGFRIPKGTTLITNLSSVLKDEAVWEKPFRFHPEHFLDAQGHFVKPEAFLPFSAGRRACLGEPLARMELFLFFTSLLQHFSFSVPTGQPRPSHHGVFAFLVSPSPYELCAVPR
T3 sequence (P08684 whole entry): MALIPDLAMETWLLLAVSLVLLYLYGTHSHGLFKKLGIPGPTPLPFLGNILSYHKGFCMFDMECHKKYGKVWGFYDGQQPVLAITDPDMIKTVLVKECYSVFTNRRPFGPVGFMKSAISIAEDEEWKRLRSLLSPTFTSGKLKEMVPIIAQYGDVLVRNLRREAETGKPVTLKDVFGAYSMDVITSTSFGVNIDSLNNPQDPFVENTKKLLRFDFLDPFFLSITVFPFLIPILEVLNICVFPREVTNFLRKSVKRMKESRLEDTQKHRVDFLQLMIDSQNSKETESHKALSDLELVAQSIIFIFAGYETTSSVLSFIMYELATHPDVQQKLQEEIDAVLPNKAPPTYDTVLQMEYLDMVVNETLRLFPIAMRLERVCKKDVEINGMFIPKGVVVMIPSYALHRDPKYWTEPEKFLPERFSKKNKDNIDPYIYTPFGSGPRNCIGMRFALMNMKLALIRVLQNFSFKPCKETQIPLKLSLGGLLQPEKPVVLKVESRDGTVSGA

## CC(C)(N)C(=O)[O-].O.O=[N+]([O-])[O-].[Cu+2].c1cnc2c(c1)ccc1cccnc12 [Cu(II) complex, [Cu(phen)(C-dmg)(H2O)]NO3]
CYP 1A2
  IC50: 8.01 µM
CYP 2D6
  IC50: 10.2 µM
CYP 3A4
  IC50: 5.46 µM
[1]; 4 mg/kg
  Band neutrophil: 0.1 ± 0.0 x10^9/L
  Basophils: 0.0 ± 0.0 x10^9/L
  Eosinophils: 0.0 ± 0.0 x10^9/L
  Hemoglobin: 126.8 ± 10.0 g/L
  Lymphocytes: 0.2 ± 0.0 x10^9/L
  MCHC: 308.5 ± 4.9 g/L
  MCV: 52.9 ± 1.2 fL
  Monocytes: 0.2 ± 0.1 x10^9/L
  PVC: 0.4 ± 0.0 L/L
  Plasma protein: 59.5 ± 2.2 g/L
  RBC: 7.8 ± 0.7 x10^12/L
  Segmented neutrophil: 2.0 ± 0.4 x10^9/L
  Thrombocytes: 1659.0 ± 120.4 x10^9/L
  WBC: 2.5 ± 0.5 x10^9/L
[1]; 5 mg/kg
  Band neutrophil: 0.1 ± 0.0 x10^9/L
  Basophils: 0.0 ± 0.0 x10^9/L
  Eosinophils: 0.0 ± 0.0 x10^9/L
  Hemoglobin: 133.7 ± 4.4 g/L
  Lymphocytes: 0.1 ± 0.0 x10^9/L
  MCHC: 308.3 ± 5.0 g/L
  MCV: 56.2 ± 1.8 fL
  Monocytes: 0.2 ± 0.0 x10^9/L
  PVC: 0.4 ± 0.0 L/L
  Plasma protein: 55.7 ± 2.5 g/L
  RBC: 7.8 ± 0.4 x10^12/L
  Segmented neutrophil: 2.5 ± 0.2 ^* x10^9/L
  Thrombocytes: 1288.2 ± 155.8 x10^9/L
  WBC: 2.9 ± 0.3 ^* x10^9/L
[1]; C666-1-GFP-Luc2 bearing mice, 5 and 6 mg/kg, vs control groups
  spleen weight: significantly lower weight
[1]; HK1 bearing mice, 4, 6 and 8 mg/kg
  spleen weight: did not show weight loss
[1]; all treated groups
  bone marrow suppression (femur): no evidence of bone marrow suppression

Source: publication PMC5766233, “Ternary copper(II) complex: NCI60 screening, toxicity studies, and evaluation of efficacy in xenograft models of nasopharyngeal carcinoma” (PLoS ONE, 2018)
